Results: patent publication US8778959B2, “AZA-bridged ring-fused indoles and indolines” (AbbVie Inc., priority 2009, dated 2014)

Tested on: SK-N-SH human neuroblastoma cells
Experiment: Serum Deprivation/JC-1 Mitochondrial Membrane Potential (MMP) Assay
Assay type: cell-based
Settings: for Emax: percent maximal intensity in JC-1 ratio normalized to peak value for 10 μM dimebolin, read-out: JC-1 max %; for EC50: serum deprivation ~18 hours, JC-1 ratio normalized to peak value for 10 μM dimebolin, single curve fit to mean of n=2-3
Procedure: SK-N-SH human neuroblastoma cells obtained from American Type Culture Collection (Rockville, Md.) were maintained in the log phase of growth in Minimal Essential Media (MEM), 10% heat inactivated fetal calf serum and 100 units/mL antibiotic-antimycotic (AA). Cells were cultured and maintained in a humidified incubator at 37° C. under 5% CO2 and 95% air. Cells were trypsinized (0.25%) and subcultured every 3 days and used from 15-18 passages. All cell culture supplies were obtained from Invitrogen (Carlsbad, Calif.).
SK-N-SH cells were plated 2-3 days in advance at a concentration of 50,000 cells/well onto collagen coated black-walled 96 well plates (Becton-Dickinson, Bedford, Mass.) in a total volume of 200 μL. On day of experimental treatment, the media containing serum was aspirated from each well and rinsed once with MEM/1% AA without serum. The cells then were incubated overnight in 100 μL of MEM/1% AA (no serum) with and without dimebolin or novel chemical entities overnight for ˜18 hours. The following day, JC-1 dye (5,5′,6,6′-tetrachloro-1,1′,3,3′-tetraethylbenzimidazolcarbocyanide) was diluted 1:10 into MEM media according to the JC-1 Mitochondrial Membrane Potential Assay Kit: (Cayman Chemical Company, Ann Arbor, Mich.) and then 10 μL of the JC-1 dye solution was added to each well. The plates were centrifuged for 5 minutes at 400×g at room temperature followed by 35 minute incubation at 37° C. The plates were washed twice with 200 μL of provided Assay Buffer followed an addition of 100 μL of Assay Buffer to each well. The plates were read with an excitation and emission of 560 nm and 595 nM for red fluorescence and with an excitation and emission of […] and 535 nM for green fluorescence to determine the final JC-1 value taking the red to green fluorescence ratio. This assay is based on change in mitochondrial membrane potential (MMP) using this lipophilic cationic dye, JC-1, by monitoring the changes in the ratio of red to green fluorescence as the MMP depolarizes. This change in MMP reflects the health of the cell with healthy, viable cells have a high JC-1 ratio and high MMP whereas apoptotic, unhealthy cells have a low JC-1 ratio or low MMP.
For the ability of compounds to reverse the stress due to serum deprivation and increase the JC-1 ratio, the percent maximal intensity in JC-1 ratio was normalized to that induced by the peak value for 10 μM dimebolin and plotted against the compound concentration to calculate EC50 values and to control for plate-to-plate variability. Concentration-response data were analyzed using GraphPad Prism (San Diego, Calif.); the EC50 values were derived from a single curve fit to the mean data of n=2-3, in duplicates.
All compounds were dissolved in dimethyl sulfoxide at 10 mM stock solutions and tested at a concentration that the dimethyl sulfoxide levels never exceeded 1%.

CN1[C@H]2CCC[C@@H]1c1c([nH]c3c(OCc4ccccc4)cccc13)C2 (stereo in doubt) [Example 8, (+)-(7S*,11R*)-4-(benzyloxy)-12-methyl-6,7,8,9,10,11-hexahydro-5H-7,11-epiminocycloocta[b]indole]
Emax (Homo sapiens, SK-N-SH, 18 h): 107%
EC50 (Homo sapiens, SK-N-SH, 18 h): 8.52 µM

COC(=O)N1C2CCC1c1c([nH]c3c(-c4ccc5ccncc5c4)cccc13)C2 (stereo not shown) [Example 20, methyl 4-isoquinolin-7-yl-5,6,7,8,9,10-hexahydro-7,10-epiminocyclohepta[b]indole-11-carboxylate]
Emax (Homo sapiens, SK-N-SH, 18 h): 292%
EC50 (Homo sapiens, SK-N-SH, 18 h): 9.94 µM

Cc1ccc(-c2cccc3c4c([nH]c23)CC2CCC4N2C)cn1 (stereo not shown) [Example 33, 11-methyl-4-(6-methylpyridin-3-yl)-5,6,7,8,9,10-hexahydro-7,10-epiminocyclohepta[b]indole]
Emax (Homo sapiens, SK-N-SH, 18 h): 158%
EC50 (Homo sapiens, SK-N-SH, 18 h): 5.08 µM

CN1C2CCC1c1c([nH]c3c(-c4ccc(Cl)cc4)cccc13)C2 (stereo not shown) [Example 11, 4-(4-chlorophenyl)-11-methyl-5,6,7,8,9,10-hexahydro-7,10-epiminocyclohepta[b]indole]
Emax (Homo sapiens, SK-N-SH, 18 h): 74%
EC50 (Homo sapiens, SK-N-SH, 18 h): 8.03 µM

CN1C2CCC1c1c([nH]c3c(-c4cnc5ccccc5c4)cccc13)C2 (stereo not shown) [Example 34, 11-methyl-4-(quinolin-3-yl)-5,6,7,8,9,10-hexahydro-7,10-epiminocyclohept[b]indole]
Emax (Homo sapiens, SK-N-SH, 18 h): 189%
EC50 (Homo sapiens, SK-N-SH, 18 h): 1.34 µM

c1cc(-c2ccncc2)c2[nH]c3c(c2c1)C1CCC(C3)N1 (stereo not shown) [Example 31, 4-(pyridin-4-yl)-5,6,7,8,9,10-hexahydro-7,10-epiminocyclohepta[b]indole]
Emax (Homo sapiens, SK-N-SH, 18 h): 22.3%
EC50 (Homo sapiens, SK-N-SH, 18 h): > 31.6 µM

COC(=O)N1C2CCC1c1c([nH]c3c(/C=C/c4ccc(C)nc4)cccc13)C2 (stereo not shown) [Example 19, methyl 4-[(E)-2-(6-methylpyridin-3-yl)vinyl]-5,6,7,8,9,10-hexahydro-7,10-epiminocyclohepta[b]indole-11-carboxylate]
Emax (Homo sapiens, SK-N-SH, 18 h): 178%
EC50 (Homo sapiens, SK-N-SH, 18 h): 5.37 µM

Cc1ccc(C#Cc2cccc3c4c([nH]c23)CC2CNC4C2)cn1 (stereo not shown) [Example 38, 7-[(6-methylpyridin-3-yl)ethynyl]-1,2,3,4,5,6-hexahydro-1,4-methanoazepino[4,3-b]indole]
Emax (Homo sapiens, SK-N-SH, 18 h): 120%
EC50 (Homo sapiens, SK-N-SH, 18 h): 5.88 µM

Cc1ccc(/C=C/c2cccc3c4c([nH]c23)C[C@H]2CC[C@@H]4N2C)cn1 (stereo in doubt) [Example 15, (−)-(7R*,10S*)-11-methyl-4-[(E)-2-(6-methylpyridin-3-yl)vinyl]-5,6,7,8,9,10-hexahydro-7,10-epiminocyclohepta[b]indole]
Emax (Homo sapiens, SK-N-SH, 18 h): 160%
EC50 (Homo sapiens, SK-N-SH, 18 h): 3.04 µM

Cc1ccc(/C=C/c2cc(F)cc3c4c([nH]c23)CC2CCC4N2C)cn1 (stereo not shown) [Example 12, 2-fluoro-11-methyl-4-[(E)-2-(6-methylpyridin-3-yl)vinyl]-5,6,7,8,9,10-hexahydro-7,10-epiminocyclohepta[b]indole]
Emax (Homo sapiens, SK-N-SH, 18 h): 200%
EC50 (Homo sapiens, SK-N-SH, 18 h): 7.83 µM

Cc1ccc(CCc2cccc3c4c([nH]c23)CC2CCC4N2C)cn1 (stereo not shown) [Example 2, 11-methyl-4-[2-(6-methylpyridin-3-yl)ethyl]-5,6,7,8,9,10-hexahydro-7,10-epiminocyclohepta[b]indole]
Emax (Homo sapiens, SK-N-SH, 18 h): 173%
EC50 (Homo sapiens, SK-N-SH, 18 h): 5.25 µM

Cc1ccc(/C=C/c2cccc3c4c([nH]c23)C[C@H]2CC[C@@H]4N2)cn1 (single isomer, unassigned) [Example 25]
Emax (Homo sapiens, SK-N-SH, 18 h): 173%
EC50 (Homo sapiens, SK-N-SH, 18 h): 6.25 µM
EC50: 5.99 µM

Clc1ccc(-c2ccc(-c3cccc4c5c([nH]c34)CC3CCC5N3)cn2)cn1 (stereo not shown) [Example 28, 4-(6′-chloro-2,3′-bipyridin-5-yl)-5,6,7,8,9,10-hexahydro-7,10-epiminocyclohepta[b]indole]
Emax (Homo sapiens, SK-N-SH, 18 h): 118%
EC50 (Homo sapiens, SK-N-SH, 18 h): 5.5 µM

c1cncc(-c2cccc3c4c([nH]c23)CC2CCC4N2)c1 (stereo not shown) [Example 35, 4-(pyridin-3-yl)-5,6,7,8,9,10-hexahydro-7,10-epiminocyclohepta[b]indole]
Emax (Homo sapiens, SK-N-SH, 18 h): 87.2%
EC50 (Homo sapiens, SK-N-SH, 18 h): 11 µM

CC(=O)N1C2CCC1c1c([nH]c3c(-c4ccc5ncccc5c4)cccc13)C2 (stereo not shown) [Example 23, 11-acetyl-4-quinolin-6-yl-5,6,7,8,9,10-hexahydro-7,10-epiminocyclohepta[b]indole]
Emax (Homo sapiens, SK-N-SH, 18 h): 209%
EC50 (Homo sapiens, SK-N-SH, 18 h): 6.11 µM

CN1[C@@H]2CC[C@H]1c1c([nH]c3c(OCc4ccccc4)cccc13)C2 (stereo in doubt) [Example 5, (7R*,10S*)-4-(benzyloxy)-11-methyl-5,6,7,8,9,10-hexahydro-7,10-epiminocyclohepta[b]indole]
Emax (Homo sapiens, SK-N-SH, 18 h): 24%
EC50 (Homo sapiens, SK-N-SH, 18 h): > 30 µM

c1ccc2ncc(-c3cccc4c5c([nH]c34)CC3CCC5N3)cc2c1 (stereo not shown) [Example 32, 4-(quinolin-3-yl)-5,6,7,8,9,10-hexahydro-7,10-epiminocyclohepta[b]indole]
Emax (Homo sapiens, SK-N-SH, 18 h): 174%
EC50 (Homo sapiens, SK-N-SH, 18 h): 2.58 µM

c1ccc(COc2cccc3c4c([nH]c23)C[C@@H]2CCC[C@H]4N2)cc1 (stereo in doubt) [Example 10, (7S*,11R*)-4-(benzyloxy)-6,7,8,9,10,11-hexahydro-5H-7,11-epiminocycloocta[b]indole]
Emax (Homo sapiens, SK-N-SH, 18 h): 128%
EC50 (Homo sapiens, SK-N-SH, 18 h): 4.81 µM

Cc1ccc(/C=C/c2cccc3c4c([nH]c23)CC2CNC4C2)cn1 (stereo not shown) [Example 30, 7-[(E)-2-(6-methylpyridin-3-yl)vinyl]-1,2,3,4,5,6-hexahydro-1,4-methanoazepino[4,3-b]indole]
Emax (Homo sapiens, SK-N-SH, 18 h): 118%
EC50 (Homo sapiens, SK-N-SH, 18 h): 5.59 µM

CC(=O)N1C2CCC1c1c([nH]c3c(/C=C/c4ccc(C)nc4)cccc13)C2 (stereo not shown) [Example 18, 11-acetyl-4-[(E)-2-(6-methylpyridin-3-yl)vinyl]-5,6,7,8,9,10-hexahydro-7,10-epiminocyclohepta[b]indole]
Emax (Homo sapiens, SK-N-SH, 18 h): 146%
EC50 (Homo sapiens, SK-N-SH, 18 h): 10.6 µM

Clc1ccc(-c2cccc3c4c([nH]c23)CC2CCC4N2)cn1 (stereo not shown) [Example 27, 4-(6-chloropyridin-3-yl)-5,6,7,8,9,10-hexahydro-7,10-epiminocyclohepta[b]indole]
Emax (Homo sapiens, SK-N-SH, 18 h): 104%
EC50 (Homo sapiens, SK-N-SH, 18 h): 10.2 µM
